This experiment concerns P388 leukemia ip, CD2F1 mice, survival T/C. Nature of the experiment: NCI In Vivo Anticancer Drug Screen. Data for tumor model P388 Leukemia (intraperitoneal) in CD2F1 (CDF1) mice. The note with it: endpoint: median survival time, higher = longer survival. In short, it runs like this: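 Mice carrying the transplanted tumor received test compound or vehicle. Survival was recorded in each group, and the value is the treated-group measurement divided by that of the vehicle-treated control group.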

Where [1] appears, read: dose: 50.0 mg/kg/injection, schedule: Q01DX005 (ip), vehicle: Klucel (hydroxypropylcellulose) (HPC).
Setting [2] is: dose: 6.25 mg/kg/injection, schedule: Q01DX009 (ip), vehicle: saline with Tween-80.
Setting [3] is: dose: 100.0 mg/kg/injection, schedule: Q01DX005 (ip), vehicle: Klucel (hydroxypropylcellulose) (HPC).
The mark [4] stands for this setting: dose: 200.0 mg/kg/injection, schedule: Q01DX005 (ip), vehicle: Klucel (hydroxypropylcellulose) (HPC).
The mark [5] stands for this setting: dose: 12.5 mg/kg/injection, schedule: Q01DX009 (ip), vehicle: saline with Tween-80.
Setting [6] is: dose: 25.0 mg/kg/injection, schedule: Q01DX009 (ip), vehicle: saline with Tween-80.
Setting [7] is: dose: 60.0 mg/kg/injection, schedule: Q01DX005 (ip), vehicle: saline with Tween-80.
The mark [8] stands for this setting: dose: 120.0 mg/kg/injection, schedule: Q01DX005 (ip), vehicle: saline with Tween-80.
Setting [9] is: dose: 240.0 mg/kg/injection, schedule: Q01DX005 (ip), vehicle: saline with Tween-80.
Where [10] appears, read: dose: 60.0 mg/kg/injection, schedule: Q01DX005 (ip), vehicle: saline.
Setting [11] is: dose: 50.0 mg/kg/injection, schedule: Q01DX009 (ip), vehicle: saline with Tween-80.

Several values for one entry are separate records, joined by “and”; a condition that tells them apart may be missing. Identical values can stand only once. Inconclusive results and toxic doses are left out. Numbered stars: 1 amine (or outer) side, 2 acyl side, 3 side chain; on linkers, the order of the positions; unused ones are H or OH. Square brackets hold non-standard residues; d marks the D form. Peptide text beside a SMILES is read from it. X9 = C=CCC(O[*:1])C(=O)[*:2]; NMeV = CN[CH](C(=O)O)C(C)C; NMeA = CN[CH](C)C(=O)O; βAla = NCCC(=O)O

Consider `CC(C)=CCC/C(C)=C/COc1cc(O)c2c(O)c3c(cc2c1)CC(C)(O)CC3=O` (stereo not drawn), for which the T/C runs as follows: (dose: 6.25 mg/kg/injection, schedule: Q01DX009 (ip), vehicle: saline + Tween-80 + alcohol) 107 % of control; (dose: 12.5 mg/kg/injection, schedule: Q01DX009 (ip), vehicle: saline + Tween-80 + alcohol) 105 % of control; (dose: 25.0 mg/kg/injection, schedule: Q01DX009 (ip), vehicle: saline + Tween-80 + alcohol) 107 % of control.

In the case of `O=C(NCCCl)Oc1ccc(Cl)cc1Cl`, the T/C runs as follows: (dose: 12.5 mg/kg/injection, schedule: Q01DX005 (ip), vehicle: Klucel (hydroxypropylcellulose) (HPC)) 100 % of control; (dose: 25.0 mg/kg/injection, schedule: Q01DX005 (ip), vehicle: Klucel (hydroxypropylcellulose) (HPC)) 106 % of control; under setting [1], 108 % of control and 113 % of control.

`Clc1ccc(C#Cc2ccc(Cl)cc2)cc1`: the T/C (dose: 3.13 mg/kg/injection, schedule: Q01DX009 (ip), vehicle: saline with Tween-80) was 109 % of control and the T/C under setting [2] is 113 % of control.

Consider `O=S(=O)(O)SCCN1CCCC1`, for which the T/C reads like this: (dose: 12.5 mg/kg/injection, schedule: Q01DX009 (ip), vehicle: saline) 105 % of control; (dose: 25.0 mg/kg/injection, schedule: Q01DX009 (ip), vehicle: saline) 110 % of control; (dose: 50.0 mg/kg/injection, schedule: Q01DX009 (ip), vehicle: saline) 110 % of control.

Turning to `COc1ccc(/C=C2/N=C(c3ccc(Cl)c(Cl)c3)OC2=O)cc1OC`, the T/C reads like this: under setting [1], 90 % of control; under setting [3], 88 % of control; under setting [4], 94 % of control.

On to `COc1ccc(C(=O)/C=C/c2ccc(OCc3ccccc3)cc2)c(OC)c1`, for which the T/C under setting [2] was 99 % of control, the T/C under setting [5] was 93 % of control and the T/C under setting [6] was 91 % of control.

As for `CNC(=S)NNc1cccc2ccccc12`, the T/C reads like this: (dose: 12.5 mg/kg/injection, schedule: Q01DX009 (ip), vehicle: other) 97 % of control; (dose: 25.0 mg/kg/injection, schedule: Q01DX009 (ip), vehicle: other) 101 % of control; (dose: 50.0 mg/kg/injection, schedule: Q01DX009 (ip), vehicle: other) 100 % of control; (dose: 100.0 mg/kg/injection, schedule: Q01DX009 (ip), vehicle: other) 103 % of control and 96 % of control; (dose: 200.0 mg/kg/injection, schedule: Q01DX009 (ip), vehicle: other) 103 % of control and 96 % of control; (dose: 400.0 mg/kg/injection, schedule: Q01DX009 (ip), vehicle: other) 94 % of control.

`O=C(O)C(Cc1cccc(F)c1)NC(=O)C(F)(F)F` (stereo not drawn): the T/C (dose: 6.25 mg/kg/injection, schedule: Q01DX009 (ip), vehicle: saline) was 98 % of control.

Turning to `Cc1c(NC(=O)Nc2ccc(F)cc2)c(=O)n(-c2ccccc2)n1C`, the T/C by setting is: under setting [7], 114 % of control; under setting [8], 99 % of control; under setting [9], 96 % of control.

Consider `Cc1c(C(=O)O)nc(C(Br)(Br)Br)[nH]c1=O`, for which the T/C is, setting by setting: (dose: 12.5 mg/kg/injection, schedule: Q01DX009 (ip), vehicle: distilled water + Tween-80) 94 % of control; (dose: 25.0 mg/kg/injection, schedule: Q01DX009 (ip), vehicle: distilled water + Tween-80) 118 % of control; (dose: 50.0 mg/kg/injection, schedule: Q01DX009 (ip), vehicle: distilled water + Tween-80) 118 % of control; (dose: 100.0 mg/kg/injection, schedule: Q01DX009 (ip), vehicle: distilled water + Tween-80) 107 % of control; (dose: 200.0 mg/kg/injection, schedule: Q01DX009 (ip), vehicle: distilled water + Tween-80) 107 % of control.

With `OCc1cnccc1Cl`, the T/C is, setting by setting: under setting [10], 95 % of control; (dose: 120.0 mg/kg/injection, schedule: Q01DX005 (ip), vehicle: saline) 100 % of control.

Turning to `C=CCC1OC(=O)CCNC(=O)C(C)N(C)C(=O)C(C(C)C)N(C)C(=O)C(C(C)CC)NC(=O)C2CCCN2C1=O` (stereo not drawn) (cyclo([X9]PI[NMeV][NMeA][βAla]); configuration not given here), the T/C runs as follows: (dose: 1.56 mg/kg/injection, schedule: Q01DX005 (ip), vehicle: water) 94 % of control; (dose: 3.12 mg/kg/injection, schedule: Q01DX005 (ip), vehicle: water) 95 % of control; (dose: 6.25 mg/kg/injection, schedule: Q01DX005 (ip), vehicle: water) 101 % of control; (dose: 12.5 mg/kg/injection, schedule: Q01DX005 (ip), vehicle: water) 104 % of control.

Consider `CC1(C)OC2CC3CC(O)CC3C2O1` (stereo not drawn), for which the T/C is 98 % of control under setting [7], 102 % of control under setting [8] and 102 % of control under setting [9].

As for `CNC(=O)C(O)c1c(-c2ccccc2)c(-c2ccccc2)c2n1CCC2` (stereo not drawn), the T/C was 96 % of control (dose: 60.0 mg/kg/injection, schedule: Q01DX005 (ip), vehicle: Klucel (hydroxypropylcellulose) (HPC)); 89 % of control (dose: 120.0 mg/kg/injection, schedule: Q01DX005 (ip), vehicle: Klucel (hydroxypropylcellulose) (HPC)); 86 % of control (dose: 240.0 mg/kg/injection, schedule: Q01DX005 (ip), vehicle: Klucel (hydroxypropylcellulose) (HPC)).

Consider `CCOC(=O)N1Cc2cc3ccccc3nc2C1`, for which the T/C by setting is: under setting [2], 107 % of control; under setting [5], 101 % of control; under setting [6], 101 % of control; under setting [11], 108 % of control.

In the case of `Cc1nnc(Cl)c(C#N)c1C`, the T/C under setting [1] is 104 % of control, the T/C under setting [3] was 92 % of control and the T/C under setting [4] is 95 % of control.

With `COc1ccc2c(c1)C1(C)C(=O)OC(C2=O)C1C` (stereo not drawn), the T/C (dose: 50.0 mg/kg/injection, schedule: Q01DX001 (ip), vehicle: Klucel (hydroxypropylcellulose) (HPC)) is 104 % of control; the T/C (dose: 100.0 mg/kg/injection, schedule: Q01DX001 (ip), vehicle: Klucel (hydroxypropylcellulose) (HPC)) was 99 % of control; the T/C (dose: 200.0 mg/kg/injection, schedule: Q01DX001 (ip), vehicle: Klucel (hydroxypropylcellulose) (HPC)) was 114 % of control.

Turning to `CC(C)SSC(=O)N1CCCC1C(=O)O` (stereo not drawn), the T/C was 106 % of control (dose: 15.0 mg/kg/injection, schedule: Q01DX005 (ip), vehicle: saline); 98 % of control (dose: 30.0 mg/kg/injection, schedule: Q01DX005 (ip), vehicle: saline); 98 % of control under setting [10].

Regarding `CC(C)(C)[Si](C)(C)OC(=O)Nc1ccc(N(CCCl)CCCl)cc1`, the T/C was 122 % of control (dose: 0.05 mg/kg/injection, schedule: Q01DX009 (ip), vehicle: saline with Tween-80); 105 % of control (dose: 0.07 mg/kg/injection, schedule: Q01DX009 (ip), vehicle: saline with Tween-80); 118 % of control (dose: 0.11 mg/kg/injection, schedule: Q01DX009 (ip), vehicle: saline with Tween-80); 123 % of control (dose: 0.16 mg/kg/injection, schedule: Q01DX009 (ip), vehicle: saline with Tween-80); 153 % of control and 165 % of control (dose: 5.0 mg/kg/injection, schedule: Q04DX003 (ip), vehicle: distilled water + Tween-80); 158 % of control and 161 % of control and 203 % of control (dose: 10.0 mg/kg/injection, schedule: Q04DX003 (ip), vehicle: distilled water + Tween-80). The T/C is 100 % of control (dose: 40.0 mg/kg/injection, schedule: Q04DX003 (ip), vehicle: distilled water + Tween-80); 95 % of control (dose: 1.5 micrograms/kg/injection, schedule: Q01DX009 (ip), vehicle: saline); 97 % of control (dose: 3.1 micrograms/kg/injection, schedule: Q01DX009 (ip), vehicle: saline); 102 % of control (dose: 6.2 micrograms/kg/injection, schedule: Q01DX009 (ip), vehicle: saline); 104 % of control (dose: 12.5 micrograms/kg/injection, schedule: Q01DX009 (ip), vehicle: saline); 94 % of control (dose: 25.0 micrograms/kg/injection, schedule: Q01DX009 (ip), vehicle: saline). For the same compound, the T/C (dose: 50.0 micrograms/kg/injection, schedule: Q01DX009 (ip), vehicle: saline) was 110 % of control.

`CC(C)S(=O)c1ccc(Cl)cc1[N+](=O)[O-]` (stereo not drawn): the T/C under setting [11] is 99 % of control; the T/C (dose: 100.0 mg/kg/injection, schedule: Q01DX009 (ip), vehicle: saline with Tween-80) was 99 % of control; the T/C (dose: 200.0 mg/kg/injection, schedule: Q01DX009 (ip), vehicle: saline with Tween-80) is 100 % of control.

(Values after PubChem BioAssay AID330 (DTP/NCI, 2004).)
